Patent US7704995B2 (Exelixis, Inc., priority 2003, dated 2010)

Biological target: T1, Chk1 (Homo sapiens, UniProt O14757)
T1 construct: purchased Upstate Biotechnology
T1 sequence (O14757 1-476): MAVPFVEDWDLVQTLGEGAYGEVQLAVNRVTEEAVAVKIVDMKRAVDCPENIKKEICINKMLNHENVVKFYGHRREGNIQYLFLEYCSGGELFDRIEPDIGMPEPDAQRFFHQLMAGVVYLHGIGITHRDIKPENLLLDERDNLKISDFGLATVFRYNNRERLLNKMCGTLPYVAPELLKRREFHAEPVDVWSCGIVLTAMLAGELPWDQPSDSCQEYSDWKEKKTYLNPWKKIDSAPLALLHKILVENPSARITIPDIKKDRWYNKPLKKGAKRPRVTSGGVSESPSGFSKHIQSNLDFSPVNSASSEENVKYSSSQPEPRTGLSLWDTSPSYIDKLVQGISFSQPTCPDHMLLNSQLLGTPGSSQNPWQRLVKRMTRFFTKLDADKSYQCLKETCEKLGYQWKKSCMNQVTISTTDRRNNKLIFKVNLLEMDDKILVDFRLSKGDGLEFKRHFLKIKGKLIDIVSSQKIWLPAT
Assay: Chk1 kinase assay: incorporation of γ-33P ATP into immobilized myelin basic protein
Assay type: biochemical
Details: Table 11; Chk1 only; read-out: Chk1 IC50
Procedure, shortened: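 Chk1 (10 nM) or Chk2 (20 nM) phosphorylated plate-immobilized myelin basic protein for 1 h at room temperature in Hepes pH 7.6 buffer with MgCl2, DTT, 1% DMSO, γ-33P ATP plus 10 μM (Chk1) or 30 μM (Chk2) unlabeled ATP. Bound radioactivity counted by scintillation; IC50 determined, Ki derivable from IC50.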

Compound	IC50 [µM]
CN1CCN(C(=O)c2nc(-c3cccc(C(=O)NCc4ccccc4)c3)cnc2N)CC1 [Example 573, 3-{5-amino-6-[(4-methylpiperazin-1-yl)carbonyl]pyrazin-2-yl}-N-(phenylmethyl)benzamide]	≥ 10
Nc1ncc(-c2cccc(C(=O)NCc3ccccc3)c2)nc1C(=O)N1CCN(c2ccc(F)cc2)CC1 [Example 574, 3-(5-amino-6-{[4-(4-fluorophenyl)piperazin-1-yl]carbonyl}pyrazin-2-yl)-N-(phenylmethyl)benzamide]	≥ 10
Nc1ncc(-c2cccc(C(=O)NCc3ccccc3)c2)nc1C(=O)N1CCN(Cc2ccccc2)CC1 [Example 575, 3-(5-amino-6-{[4-(phenylmethyl)piperazin-1-yl]carbonyl}pyrazin-2-yl)-N-(phenylmethyl)benzamide]	≥ 10
COC(=O)CNC(=O)c1nc(-c2cccc(C(=O)NCc3ccccc3)c2)cnc1N [Example 576, methyl N-{[3-amino-6-(3-{[(phenylmethyl)amino]carbonyl}phenyl)pyrazin-2-yl]carbonyl}glycinate]	1 to 10
Nc1ncc(-c2cccc(C(=O)NCc3ccccc3)c2)nc1C(=O)NCC(=O)O [Example 577, N-{[3-amino-6-(3-{[(phenylmethyl)amino]carbonyl}phenyl)pyrazin-2-yl]carbonyl}glycine]	≥ 10
Nc1ncc(-c2cccc(C(=O)NCc3ccccc3)c2)nc1C(=O)c1cc(F)cc(F)c1 [Example 578, 3-{5-amino-6-[(3,5-difluorophenyl)carbonyl]pyrazin-2-yl}-N-(phenylmethyl)benzamide]	≥ 10
Nc1ncc(-c2cccc(C(=O)NCc3ccccc3)c2)nc1C(=O)c1ccc(-c2ccccc2)cc1 [Example 579, 3-[5-amino-6-(biphenyl-4-ylcarbonyl)pyrazin-2-yl]-N-(phenylmethyl)benzamide]	≥ 10
Nc1ncc(-c2cccc(CO)c2)nc1-c1nc(-c2cccnc2)n[nH]1 [Example 580, {3-[5-amino-6-(3-pyridin-3-yl-1H-1,2,4-triazol-5-yl)pyrazin-2-yl]phenyl}methanol]	0.05 to 1
Nc1ncc(-c2cccc(CO)c2)nc1-c1nc(-c2ccc(Cl)cc2)n[nH]1 [Example 581, (3-{5-amino-6-[3-(4-chlorophenyl)-1H-1,2,4-triazol-5-yl]pyrazin-2-yl}phenyl)methanol]	≥ 10
CC(C)(C)c1nnc(-c2nc(-c3cccc(CN[C@H]4CCc5ccccc54)c3)cnc2N)[nH]1 [Example 582, 5-(3-{[(1S)-2,3-dihydro-1H-inden-1-ylamino]methyl}phenyl)-3-[5-(1,1-dimethylethyl)-4H-1,2,4-triazol-3-yl]pyrazin-2-amine]	0.05 to 1
Nc1ncc(-c2cccc(CO)c2)nc1-c1nc(-c2cccs2)n[nH]1 [Example 583, (3-{5-amino-6-[3-(2-thienyl)-1H-1,2,4-triazol-5-yl]pyrazin-2-yl}phenyl)methanol]	0.05 to 1
COc1cccc(-c2n[nH]c(-c3nc(-c4cccc(CN[C@H]5CCc6ccccc65)c4)cnc3N)n2)c1 [Example 584, 5-(3-{[(1S)-2,3-dihydro-1H-inden-1-ylamino]methyl}phenyl)-3-{3-[3-(methyloxy)phenyl]-1H-1,2,4-triazol-5-yl}pyrazin-2-amine]	0.05 to 1
CN(C)CCCNC(=O)c1nc(-c2cccc(CN[C@H]3CCc4ccccc43)c2)cnc1N [Example 585, 3-amino-6-(3-{[(1S)-2,3-dihydro-1H-inden-1-ylamino]methyl}phenyl)-N-[3-(dimethylamino)propyl]pyrazine-2-carboxamide]	1 to 10
Nc1ncc(-c2cccc(CN[C@H]3CCc4ccccc43)c2)nc1C(=O)NCCCn1ccnc1 [Example 586, 3-amino-6-(3-{[(1S)-2,3-dihydro-1H-inden-1-ylamino]methyl}phenyl)-N-[3-(1H-imidazol-1-yl)propyl]pyrazine-2-carboxamide]	0.05 to 1
Nc1ncc(-c2cccc(C(=O)NCc3ccccc3)c2)nc1C(=O)c1ccc(Cl)c(F)c1 [Example 587, 3-{5-amino-6-[(4-chloro-3-fluorophenyl)carbonyl]pyrazin-2-yl}-N-(phenylmethyl)benzamide]	≥ 10
COc1ccc(C(=O)c2nc(-c3cccc(C(=O)NCc4ccccc4)c3)cnc2N)c(OC)c1 [Example 588, 3-(5-amino-6-{[2,4-bis(methyloxy)phenyl]carbonyl}pyrazin-2-yl)-N-(phenylmethyl)benzamide]	≥ 10
CN(C)c1ccc(C(=O)c2nc(-c3cccc(C(=O)NCc4ccccc4)c3)cnc2N)cc1 [Example 589, 3-(5-amino-6-{[4-(dimethylamino)phenyl]carbonyl}pyrazin-2-yl)-N-(phenylmethyl)benzamide]	≥ 10
COC(=O)[C@@H]1CCCN1C(=O)c1nc(-c2cccc(C(=O)NCc3ccccc3)c2)cnc1N [Example 590, methyl 1-{[3-amino-6-(3-{[(phenylmethyl)amino]carbonyl}phenyl)pyrazin-2-yl]carbonyl}-L-prolinate]	≥ 10
COC(=O)C1CCCN(C(=O)c2nc(-c3cccc(C(=O)NCc4ccccc4)c3)cnc2N)C1 (centres unmarked) [Example 591, methyl 1-{[3-amino-6-(3-{[(phenylmethyl)amino]carbonyl}phenyl)pyrazin-2-yl]carbonyl}piperidine-3-carboxylate]	≥ 10
CC(C)(C)OC(=O)N1CCN(C(=O)c2nc(-c3cccc(C(=O)NCc4ccccc4)c3)cnc2N)CC1 [Example 592, 1,1-dimethylethyl 4-{[3-amino-6-(3-{[(phenylmethyl)amino]carbonyl}phenyl)pyrazin-2-yl]carbonyl}piperazine-1-carboxylate]	≥ 10
Nc1ncc(-c2cccc(C(=O)NCc3ccccc3)c2)nc1C(=O)N1CCNCC1 [Example 593, 3-[5-amino-6-(piperazin-1-ylcarbonyl)pyrazin-2-yl]-N-(phenylmethyl)benzamide]	≥ 10
Nc1ncc(-c2cccc(C(=O)NCc3ccccc3)c2)nc1C(=O)N[C@@H](CCC(=O)O)C(=O)O [Example 594, N-{[3-amino-6-(3-{[(phenylmethyl)amino]carbonyl}phenyl)pyrazin-2-yl]carbonyl}glutamic acid]	1 to 10
COCc1nnc(-c2nc(-c3cccc(CN[C@H]4CCc5ccccc54)c3)cnc2N)[nH]1 [Example 595, 5-(3-{[(1S)-2,3-dihydro-1H-inden-1-ylamino]methyl}phenyl)-3-{5-[(methyloxy)methyl]-4H-1,2,4-triazol-3-yl}pyrazin-2-amine]	1 to 10
Nc1ncc(-c2cccc(CN[C@H]3CCc4ccccc43)c2)nc1-c1nc(-c2cccnc2)n[nH]1 [Example 596, 5-(3-{[(1S)-2,3-dihydro-1H-inden-1-ylamino]methyl}phenyl)-3-(3-pyridin-3-yl-1H-1,2,4-triazol-5-yl)pyrazin-2-amine]	< 0.05
CNCCCNC(=O)c1nc(-c2cccc(CN[C@H]3CCc4ccccc43)c2)cnc1N [Example 597, 3-amino-6-(3-{[(1S)-2,3-dihydro-1H-inden-1-ylamino]methyl}phenyl)-N-[3-(methylamino)propyl]pyrazine-2-carboxamide]	< 0.05
Nc1ncc(-c2cccc(CN[C@H]3CCc4ccccc43)c2)nc1C(=O)NCCCN1CCCC1 [Example 598, 3-amino-6-(3-{[(1S)-2,3-dihydro-1H-inden-1-ylamino]methyl}phenyl)-N-(3-pyrrolidin-1-ylpropyl)pyrazine-2-carboxamide]	1 to 10
